Source: US20070298111A1, “Fine Particle-Containing Composition and Manufacturing Method Therefor” (EISAI R&D MANAGEMENT CO., LTD., priority 2004, published 2007)

Columns and labels:
[1] = Solubility of glibenclamide in the presence of both α-CD and SDS; type: physicochemical; settings: 3 days at room temperature
Procedure: To an aqueous solution (4 mL) containing α-CD and SDS was added glibenclamide (20 mg), which was stirred for 3 days at room temperature. This solution was filtered using a Millex-HV filter (Millipore) with a pore size of 0.45 μm, and the glibenclamide concentration in the filtrate was measured by HPLC using a Unison UK-C18 column (Imtakt).

[2] = pharmacopoeia term; cited from earlier work

SMILES	Solubility of glibenclamide relative to SDS concentration (FIG. 6) ([1]; α-CD added)	Solubility of glibenclamide relative to SDS concentration (FIG. 6) ([1]; α-CD concentration 0.0 mM)	Solubility in water [2]
COc1ccc(Cl)cc1C(=O)NCCc1ccc(S(=O)(=O)NC(=O)NC2CCCCC2)cc1 [glibenclamide, 4-[2-(5-Chloro-2-methoxybenzoylamino)ethyl](N-cyclohexylcarbamoyl)benzene-sulfonaide]	a bending point appeared indicating minimum solubility	solubility rose as the SDS concentration rose	practically insoluble in water
Cc1cccc(Nc2ccccc2C(=O)O)c1C [mefenamic acid, 2-(2,3-dimethylphenylamino)benzoic acid]	–	–	practically insoluble in water
CC(=O)S[C@@H]1CC2=CC(=O)CC[C@]2(C)[C@H]2CC[C@@]3(C)[C@@H](CC[C@@]34CCC(=O)O4)[C@H]12 [spironolactone, 7α-acetylsulfanyl-3-oxo-17α-pregn-4-ene-21,17β-carbolactone]	–	–	practically insoluble in water
